Measured values taken from publication PMC7865305, “Pseudopeptide Amyloid Aggregation Inhibitors: In Silico, Single Molecule and Cell Viability Studies” (International Journal of Molecular Sciences, 2021).
Square brackets hold non-standard residues; d marks the D form. Peptide text beside a SMILES is read from it. * marks the point of attachment. NMeF = CN[C@@H](Cc1ccccc1)C(=O)O; Myristoyl = CCCCCCCCCCCCCC(=O)*; NMeL = CN[C@@H](CC(C)C)C(=O)O; Orn = NCCC[C@H](N)C(=O)O; Dab = NCC[C@H](N)C(=O)O; βAla = NCCC(=O)O

Columns and labels:
[1] = system: Aβ(1–42)-Aβ(1–42) dimerization; set-up: method as in 2 sources, ref [21] = [21]; PMID 24321883; doi:10.1016/j.bios.2013.10.060; 21. Hane F.T. Lee B.Y. Petoyan A. Rauk A. Leonenko Z. Testing synthetic amyloid-β aggregation inhibitor using single molecule atomic force spectroscopy Biosens. Bioelectron. 2014 54 492 498 10.1016/j. ||| ref [30] = [30]; PMID 28844735; doi:10.1016/j.bbapap.2017.07.022; 30. Robinson M. Mehrazma B. Opare S.K.A. Petoyan A. Lou J. Hane F.T. Rauk A. Leonenko Z. Pseudo-peptide Amyloid-β Blocking Inhibitors: Molecular Dynamics and Single Molecule Force Spectroscopy Study B; settings: cited from earlier work; for Shift of Aβ binding probability across unbinding force distribution / Binding probability of Aβ: SMFS, ref [30]; for Binding probability of Aβ: no significant difference between inhibitors
[2] = system: HT22 cells; experiment: SG inhibitor toxicity, MTT assay; format: cell-based, mouse; settings: 24 h; for HT22 cell viability, inhibitor alone: HT22 cells, 2.5, 5.0 and 10.0 µM, MTT, n = 4, vs control, one-way ANOVA with Dunnett
Description: (§1) The MTT assay was used to evaluate the viability of HT22 cells exposed to inhibitor or mixtures of inhibitor with full length Aβ(1–42). HT22 cells were plated into 96-well cell culture plates at a cell density of 100,000 cells/mL in full growth media (DMEM/F12, with 10% FBS, 1% Pen/Strep) at 37°C, 5% CO2, until 80% confluence (20–22 h). Full growth media was exchanged for treatment media (containing Aβ or Aβ with SG inhibitor). After treatment, cells are then returned to incubator for 24 h. The media was then exchanged for phenol red-free DMEM/F12 containing 0.5 mg/mL MTT. Cells were returned to the incubator to metabolize the MTT for 3.5 h, after which, cells were solubilized in isopropanol, with 10% Triton X-100 and 0.1 M HCl. After solubilization, absorbance from the 96-well plates was read in Molecular Dynamics™ plate reader at 570 nm and 690 nm. The signal at 690 nm and media control was subtracted from the 570 nm reading prior to analysis. HT22 cells were a generous gift from Dr. Robert Cumming, PhD, University of Western Ontario.
Inhibitor toxicity to HT22 cells was assessed by treating cells with inhibitor (SGA1, Myr-SGA1, SGA3, Myr-SGA3 or SGC1) at concentrations of 2.5, 5.0 and 10.0 µM for 24 h in triplicates, for n = 4 repeats. One-way ANOVA with Dunnett’s multiple comparisons test was performed to establish significance between inhibitor groups and vehicle-treated control, threshold for significance: α = 0.05. To assess SG inhibitor neuroprotection against Aβ(1–42) oligomers, Aβ(1–42) alone or Aβ(1–42) mixed with each inhibitor at the ratios described above were applied to cells in quadruplicates for n = 3 repeats. One-way ANOVA with Dunnett’s multiple comparisons was performed to establish significance between Aβ-SG inhibitor mixture and Aβ-treated control; threshold for significance: α = 0.05.

[3] = system: HT22 cells; format: cell-based, mouse; settings: MTT; for HT22 cell viability with Aβ(1–42) and myristoylated inhibitor: 5 µM Aβ(1–42) with Myr-SG inhibitor, 24 h, Figure 7B, n = 3
Description: as §1
Aβ(1–42) oligomers were prepared following protocols adapted from Stine et al.. Briefly, Aβ(1–42) was dissolved in HFIP to 1 mg/mL solution and aliquoted into microcentrifuge tubes, and allowed to evaporate under desiccant for 24 h, leaving behind a thin film of Aβ(1–42) monomers, which was stored at […] under desiccant. Immediately prior to use, Aβ(1–42) monomers were suspended in dimethyl sulfoxide (DMSO) at a concentration of 5 mM, vortexed for 30 s, pulse centrifuged for 30 s and then sonicated for 10 min at room temperature. The 5 mM Aβ(1–42) monomer solution prepared in DMSO was then diluted to 100 µM in cold DMEM/F12 media, then further diluted to 5 µM in fresh DMEM/F12 or DMEM/F12 containing SG inhibitor at various concentrations corresponding to a final ratio of 5:1, 2:1, 1:1 and 1:2 Aβ to SG. […]
Inhibitor toxicity to HT22 cells was assessed by treating cells with inhibitor (SGA1, Myr-SGA1, SGA3, Myr-SGA3 or SGC1) at concentrations of 2.5, 5.0 and 10.0 µM for 24 h in triplicates, for n = 4 repeats. […]

[4] = system: Aβ(1–42); settings: AFM, 110 μM Aβ(1–42), 1:1 ratio, 1, 6 and 24 h on mica, vs Aβ-only control; ref [21]; cited from earlier work
Description: In Hane et al., solutions of Aβ(1–42) (prepared by the Fezoui method) with and without SGA1 were deposited onto freshly cleaved mica at 1:1 ratio with a final concetration of 110 μM Aβ(1–42), and then incubated for 1, 6 and 24 h, before being washed, dried and than imaged by AFM (Figure 4, adapted with permission).

[5] = system: Aβ(1–42); settings: ThT fluorescence, 25 μM Aβ(1–42), 37 °C, 5 to 7 days; ref [33]; cited from earlier work
Description: (§2) Experimental validation of the effect of SGA1 on amyloid aggregation and structure was performed previously by several methods: including ThT fluorescence, circular dichroism (CD), Western blot and AFM imaging. The influence of SGA1 on Aβ(1–40) and Aβ(1–42) aggregation by ThT fluorescence assay was performed at a concentration of 25 μM Aβ(1–40) and Aβ(1–42) at 37 °C for 5 to 7 days, across a broad range of SG inhibitor concentration to determine the IC50 inhibitory ligand:Aβ ratio [33].

[6] = system: Aβ(1–40); settings: ThT fluorescence, 25 μM Aβ(1–40), 37 °C, 5 to 7 days; ref [33]; cited from earlier work
Description: as §2, with “[33]. For SGA1, the IC50 ligand:Aβ(1–40) ratio occurred at 0.2, while the control, N-methylated KLVFF peptide (A ...” for “[33].”

Compound | Shift of Aβ binding probability across unbinding force distribution [1] | Binding probability of Aβ [1] | HT22 cell viability, inhibitor alone [2] | HT22 cell viability with Aβ(1–42) and myristoylated inhibitor [3] | IC50 [2] | Number of Aβ binding events ([1]; SMFS proof-of-concept study, ref [21]) | Fibril length of Aβ(1–42) aggregates [4] | IC50 inhibitory ligand/Aβ1–42 ratio [5] | IC50 ligand:Aβ(1–40) ratio [6] | Effect on Aβ(1–42) toxicity ([3]; 5 µM Aβ(1–42), Aβ/SG 5:1, 2:1, 1:1, 1:2, 24 h, n = 3, vs Aβ-treated group)
CC(=O)N[C@@H](CCN)C(=O)N[C@@H](CCCN)C(=O)N(C)[C@@H](CC(C)C)C(=O)N[C@@H](Cc1ccccc1)C(=O)N(C)[C@@H](Cc1ccccc1)C(=O)N[C@@H](CC(C)C)C(=O)N[C@@H](C)C(=O)N[C@@H](CCC(=O)O)C(N)=O [SGA3] (Ac-[Dab][Orn][NMeL]F[NMeF]LAE-NH2; N-terminus and C-terminus assumed) | more uniformly reduced binding probability across the unbinding force distribution | reduced the binding probability of Aβ | no significant reduction in cell viability was observed | – | – | – | – | – | – | –
CCCCCCCCCCCCCC(=O)N[C@@H](CCN)C(=O)N[C@@H](CCCN)C(=O)N(C)[C@@H](CC(C)C)C(=O)N[C@@H](Cc1ccccc1)C(=O)N(C)[C@@H](Cc1ccccc1)C(=O)N[C@@H](CC(C)C)C(=O)N[C@@H](C)C(=O)N[C@@H](CCC(=O)O)C(N)=O [Myr-SGA3] (Myristoyl-[Dab][Orn][NMeL]F[NMeF]LAE-NH2; C-terminus assumed) | – | – | significant reductions in HT22 cell viability at 5 and 10 µM | below 30% | ~7.5 µM | – | – | – | – | –
CCCCCCCCCCCCCC(=O)N[C@@H](CCN)C(=O)N[C@@H](CCCN)C(=O)N(C)[C@@H](CC(C)C)C(=O)N[C@@H](Cc1ccccc1)C(=O)N(C)[C@@H](Cc1ccccc1)C(=O)N[C@@H](CC(C)C)C(=O)N1CCC[C@H]1C(=O)NCCC(=O)O [Myr-SGA1] (Myristoyl-[Dab][Orn][NMeL]F[NMeF]LP[βAla]-OH; N-terminus and C-terminus assumed) | decreased the binding probability at higher force | reduced the binding probability of Aβ | significant reductions in HT22 cell viability at 5 and 10 µM | below 30% | ~7.5 µM | – | – | – | – | –
CC(=O)N[C@@H](CCN)C(=O)N[C@@H](CCCN)C(=O)N(C)[C@@H](CC(C)C)C(=O)N[C@@H](Cc1ccccc1)C(=O)N(C)[C@@H](Cc1ccccc1)C(=O)N[C@@H](CC(C)C)C(=O)N1CCC[C@H]1C(=O)NCCC(=O)O [SGA1] (Ac-[Dab][Orn][NMeL]F[NMeF]LP[βAla]-OH; N-terminus and C-terminus assumed) | – | – | no significant reduction in cell viability was observed | – | – | decreases the number Aβ binding events in a concentration dependent manner | greatly reduced | 0.5 | 0.2 | –
Glu-Ala-(Me)Phe-Phe-(Me)Phe-Leu-Orn-Daba [SGC1] | increased the binding probability at higher force | reduced the binding probability of Aβ | – | – | – | – | – | – | – | no statistically significant effect
